One data set in a line: LogD determinations. The class given is physicochemical. The following applies: Ion-count method; for logD at 1 h: 1-octanol/phosphate buffered saline, pH 7.4, pH 7.4.
The next data set has as its target T1, cathepsin K (Homo sapiens, UniProt P43235).
T1 sequence (P43235 115-329): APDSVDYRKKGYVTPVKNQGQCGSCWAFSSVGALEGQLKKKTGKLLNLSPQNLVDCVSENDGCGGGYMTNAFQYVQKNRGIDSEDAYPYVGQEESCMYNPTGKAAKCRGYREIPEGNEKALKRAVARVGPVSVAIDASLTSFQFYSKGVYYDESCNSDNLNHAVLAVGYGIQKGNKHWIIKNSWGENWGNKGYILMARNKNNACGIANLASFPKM
As to the kind of experiment: In vitro cathepsin Ki inhibition measurements. The class given is biochemical. Also noted: purchased B. Turk, Josef Stefan Institute, Ljubljana, Slovenia. As for the experimental part: Stock solutions of substrate or inhibitor were made up to 10 mM in 100% dimethylsulfoxide (DMSO) (Rathburns, Glasgow, U.K.) and diluted as appropriately required. In all cases the DMSO concentration in the assays was maintained at less than 1% (vol./vol.). The equilibrium inhibition constants (Ki^SS) for each compound were measured under steady-state conditions monitoring enzyme activity as a function of inhibitor concentration. The values were calculated on the assumption of pure competitive behaviour (Cornish-Bowden, A. Fundamentals of enzyme kinetics Portland Press; 1995, 93-128). Human recombinant cathepsin K (0.25 nM final; B. Turk, Josef, Stefan Institute, Ljubljana, Slovenia), was routinely assayed in 100 mM sodium acetate; pH 5.5 containing 1 mM EDTA, 10 mM L-cysteine and 1.8 μM Z-Leu-Arg-AMC ([S]═KM).
The apparent inhibition constant (Ki) for each compound was determined on the basis that inhibition was reversible and occurred by a pure-competitive mechanism. The Ki values were calculated, from the dependence of enzyme activity as a function of inhibitor concentration, by direct regression analysis (Prism v 3.02) using Equation 2 (Cornish-Bowden, A., 1995).
In situations where the apparent dissociation constant (Ki^app) approached the enzyme concentrations, the Ki^app values were calculated using a quadratic solution in the form described by Equation 3 (Morrison, J. F. Trends Biochem. Sci., 7, 102-105, 1982; Morrison, J. F. Biochim. Biophys. Acta, 185, 269-286, 1969; Stone, S. R. and Hofsteenge, J. Biochemistry, 25, 4622-4628, 1986).
Curves were fitted by non-linear regression analysis (Prism) using a fixed value for the enzyme concentration. Equation 4 was used to account for the substrate kinetics, where ‘Ki’ is the inhibition constant, ‘[So]’ is the initial substrate concentration and ‘KM^app’ is the apparent macroscopic binding (Michaelis) constant for the substrate (Morrison, 1982).

For a further data set, the system named is human osteoclasts. Put plainly: Human osteoclast resorption assay. In kind it is cell-based. The following applies: Homo sapiens, Osteoclast, 48 h, 1 □ M, read-out: Cell-based % Inh. @ 1 □ M Human. How it is done:
Bone resorption was studied using a model where human osteoclast precursor cells were cultured on bovine bone slices for 9 days and allowed to differentiate into bone-resorbing osteoclasts. The formed mature osteoclasts were then allowed to resorb bone. The assay was performed by Pharmatest Services Ltd, Itäinen Pitkakatu 4C, Turku, Finland. After the culture period, bone collagen degradation products were quantified from the culture medium as an index of bone resorption. Inhibitor compounds were added into the cell cultures after the differentiation period and their effects on the resorbing activity of mature osteoclasts were determined. The studies included a baseline group without added compounds and a positive control group where a potent cathepsin K inhibitor E-64 was added.
Human peripheral blood monocytes were suspended to culture medium and allowed to attach to bovine bone slices. The bone slices were transferred into 96-well tissue culture plates containing culture medium with appropriate amounts of important growth factors favouring osteoclast differentiation, including M-CSF, RANK-ligand and TGF-[…]. The cells were incubated in a CO2 incubator in humidified atmosphere of 95% air and 5% carbon dioxide at 37° C. At day 7 when osteoclast differentiation was complete, the culture medium was replaced with culture medium containing conditions favouring osteoclast activity. The cell culture was continued for an additional 2 days, during which the formed mature osteoclasts were allowed to resorb bone in the presence of vehicle, control inhibitor (E64) or test compounds. At the end of the culture, bone collagen degradation products released into the culture medium were determined using a commercially available ELISA method (CrossLaps® for culture, Nordic Bioscience, Herlev, Denmark) as an index of bone resorption (see Bagger, Y. Z. et al, J. Bone. Miner. Res. 14 (suppl. 1), S370).

Data set [1] is described as follows: Plasma incubations (human plasma stability). Further: tested at 25 µM. The class given is in vitro ADME. The following applies: 37° C.
Procedure: Aliquots were removed at 2 and 60 minutes and quenched with an equal volume of cold acetonitrile. After mixing vigorously, the precipitated protein matter was removed by filtration (Multiscreen Solvinert filter plates, Millipore, Bedford, Mass., USA) and the filtrate analysed by reverse phase HPLC with mass spectrometric detection, using single ion monitoring of the [M+H]^+ species. Metabolic turnover was determined by comparison of peak areas from the ion chromatograms of the parent compound at 2 and 60 minutes and expressed as percent remaining at 1 hour.
Setting [2] is: human recombinant cathepsin K, read-out: In vitro Ki (nM) vs Cath K.
The mark [3] stands for this setting: prior art examples of WO-A-02057270, recombinant human cathepsin K, read-out: Ki (nM) vs Human Cathepsin K.

Data on 20 molecules can be found in patent US7803803B2, “Tetrahydrofuro[3,2-B] pyrrol-3-ones as cathepsin K inhibitors” (Amura Therapeutics Limited, priority 2007, dated 2010).

Like-named read-outs stand apart in the source and are kept apart here.

Procedure for LogD determinations: LogD(PBS) determinations were performed in 96 well microtitre plates using a miniaturised “shake-flask” method. […] The plates were then capped and mixed vigorously for 1 hour on a microtitre plate shaker, after which they were left to stand, allowing the PBS and octanol phases to separate. The PBS layer was analysed by reverse phase HPLC with mass spectrometric detection, using single ion monitoring of the [M+H]^+ species.
Where AUCstd and AUCpbs are the peak areas from the standard and test ion chromatograms respectively.

Regarding `COCCN1CCN(c2ccc(C(=O)N[C@@H](CC(C)C)C(=O)N3C[C@@H](OC)[C@H]4OCC(=O)[C@H]43)cc2)CC1` [Example 28, N—((S)-1-((3aS,6R,6aS)-6-methoxy-3-oxodihydro-2H-furo[3,2-b]pyrrol-4(5H,6H,6aH)-yl)-4-methyl-1-oxopentan-2-yl)-4-(4-(2-methoxyethyl)piperazin-1-yl)benzamide], the “LogD pH 7.4” value in “LogD determinations” turned out to be 0.76. In addition, on cathepsin K (setting [2]), the Ki (commonly the dissociation constant of the complex between target and ligand, obtained from inhibition or displacement) worked out at 14.4 nM. For the same molecule, the inhibition at 1 µM with human osteoclasts lay within 25 to 54%. Also, in data set [1], the “Human Plasma Stability % rem. @ 1 h” value is 88%. In the case of “4-(4-ethylpiperazin-1-yl)-N—((S)-1-((3aS,6R,6aS)-6-methoxy-3-oxodihydro-2H-furo[3,2-b]pyrrol-4(5H,6H,6aH)-yl)-4-methyl-1-oxopentan-2-yl)benzamide [Example 7]”, at cathepsin K (setting [3]), the inhibition constant (Ki) was greater than 15000 nM. On the same count and under the same terms, to “N—((S)-1-((3aS,6R,6aS)-6-methoxy-3-oxodihydro-2H-furo[3,2-b]pyrrol-4(5H,6H,6aH)-yl)-4-methyl-1-oxopentan-2-yl)-4-(4-methylpiperazin-1-yl)benzamide [Example 3]” belongs greater than 4000 nM. Turning to `CO[C@@H]1CN(C(=O)[C@H](CC(C)C)NC(=O)c2ccc(N3CCN(C)CC3)cc2)[C@@H]2C(=O)CO[C@@H]21` [Example 3, N—((S)-1-((3aS,6R,6aS)-6-methoxy-3-oxodihydro-2H-furo[3,2-b]pyrrol-4(5H,6H,6aH)-yl)-4-methyl-1-oxopentan-2-yl)-4-(4-methylpiperazin-1-yl)benzamide], the “LogD pH 7.4” value in the data set “LogD determinations” was 0.42. For the same molecule, on cathepsin K (setting [2]), the Ki was 15.1 nM. Further, in data set [1], the “Human Plasma Stability % rem. @ 1 h” value was 87%. Take “N—((S)-1-((3aS,6R,6aR)-6-amino-3-oxodihydro-2H-furo[3,2-b]pyrrol-4(5H,6H,6aH)-yl)-4-methyl-1-oxopentan-2-yl)-4-(4-(2-methoxyethyl)piperazin-1-yl)benzamide [Example 24]”: the Ki at cathepsin K (setting [3]) was greater than 2000 nM. As for `CCCN1CCN(c2ccc(C(=O)N[C@@H](CC(C)C)C(=O)N3C[C@H](OC)[C@H]4OCC(=O)[C@H]43)cc2)CC1` [Example 13, N—((S)-1-((3aS,6S,6aS)-6-methoxy-3-oxodihydro-2H-furo[3,2-b]pyrrol-4(5H,6H,6aH)-yl)-4-methyl-1-oxopentan-2-yl)-4-(4-propylpiperazin-1-yl)benzamide], the “LogD pH 7.4” value in the data set “LogD determinations” was found to be 1.64. The Ki on cathepsin K (setting [2]) was found to be 3.9 nM. Moreover, the “Human Plasma Stability % rem. @ 1 h” value in data set [1] came out at 93%.

Turning to “N—((S)-1-((3aS,6R,6aS)-6-methoxy-3-oxodihydro-2H-furo[3,2-b]pyrrol-4(5H,6H,6aH)-yl)-4-methyl-1-oxopentan-2-yl)-4-(4-(2-methoxyethyl)piperazin-1-yl)benzamide [Example 28]”, on cathepsin K (setting [3]), the Ki was greater than 2500 nM. Turning to `CCCN1CCN(c2ccc(C(=O)N[C@@H](CC(C)(C)C)C(=O)N3C[C@H](OC)[C@H]4OCC(=O)[C@H]43)cc2)CC1` [Example 14, N—((S)-1-((3aS,6S,6aS)-6-methoxy-3-oxodihydro-2H-furo[3,2-b]pyrrol-4(5H,6H,6aH)-yl)-4,4-dimethyl-1-oxopentan-2-yl)-4-(4-propylpiperazin-1-yl)benzamide], the “LogD pH 7.4” value in “LogD determinations” is reported as 1.74. At cathepsin K (setting [2]), the Ki is 8.6 nM. For the same molecule, the “Human Plasma Stability % rem. @ 1 h” value in data set [1] was 98%. For the molecule “N—((S)-1-((3aS,6S,6aS)-6-methoxy-3-oxodihydro-2H-furo[3,2-b]pyrrol-4(5H,6H,6aH)-yl)-4-methyl-1-oxopentan-2-yl)-4-(4-methylpiperazin-1-yl)benzamide [Example 1]”, at cathepsin K (setting [3]), the Ki was greater than 20000 nM.

For “N—((S)-1-((3aS,6R,6aS)-6-methoxy-3-oxodihydro-2H-furo[3,2-b]pyrrol-4(5H,6H,6aH)-yl)-4,4-dimethyl-1-oxopentan-2-yl)-4-(4-methylpiperazin-1-yl)benzamide [Example 4]”, the Ki at cathepsin K (setting [3]) was greater than 100000 nM. With “4-(4-ethylpiperazin-1-yl)-N—((S)-1-((3aS,6S,6aS)-6-methoxy-3-oxodihydro-2H-furo[3,2-b]pyrrol-4(5H,6H,6aH)-yl)-4,4dimethyl-1-oxopentan-2-yl)benzamide [Example 6]”, at cathepsin K (setting [3]), the Ki was greater than 20000 nM. Still for that read-out and setting: to “4-(4-ethylpiperazin-1-yl)-N—((S)-1-((3aS,6S,6aS)-6-methoxy-3-oxodihydro-2H-furo[3,2-b]pyrrol-4(5H,6H,6aH)-yl)-4-methyl-1-oxopentan-2-yl)benzamide [Example 5]” belongs greater than 100000 nM; to “N—((S)-1-((3aS,6S,6aS)-6-methoxy-3-oxodihydro-2H-furo[3,2-b]pyrrol-4(5H,6H,6aH)-yl)-4-methyl-1-oxopentan-2-yl)-4-(4-(2-methoxyethyl)piperazin-1-yl)benzamide [Example 27]”, greater than 20000 nM. Turning to “N—((S)-1-((3aS,6S,6aS)-6-methoxy-3-oxodihydro-2H-furo[3,2-b]pyrrol-4(5H,6H,6aH)-yl)-4,4-dimethyl-1-oxopentan-2-yl)-4-(4-methylpiperazin-1-yl)benzamide [Example 2]”, the Ki at cathepsin K (setting [3]) is greater than 50000 nM. The same measure, in the same setting: to “N—((S)-1-((3aS,6R,6aS)-6-hydroxy-3-oxodihydro-2H-furo[3,2-b]pyrrol-4(5H,6H,6aH)-yl)-4-methyl-1-oxopentan-2-yl)-4-(4-(2-methoxyethyl)piperazin-1-yl)benzamide [Example 26]” belongs greater than 8000 nM. With `CCN1CCN(c2ccc(C(=O)N[C@H](C(=O)N3C[C@H](OC)[C@H]4OCC(=O)[C@H]43)C3CCCC3)cc2)CC1`, the logD (in general, lipophilicity at a set pH, counting ionised and neutral species) at 1 h in the data set “LogD determinations” is 1.59. Besides, on cathepsin K (setting [2]), the Ki turned out to be 3.6 nM. Also, in data set [1], the “Human Plasma Stability % rem. @ 1 h” value stood at 90.9%. As to “N—((S)-1-((3aS,6S,6aR)-6-amino-3-oxodihydro-2H-furo[3,2-b]pyrrol-4(5H,6H,6aH)-yl)-4-methyl-1-oxopentan-2-yl)-4-(4-(2-methoxyethyl)piperazin-1-yl)benzamide [Example 23]”, the Ki at cathepsin K (setting [3]) was greater than 3000 nM. Still for that read-out and setting: to “N—((S)-1-((3aS,6R,6aS)-6-methoxy-3-oxodihydro-2H-furo[3,2-b]pyrrol-4(5H,6H,6aH)-yl)-4,4-dimethyl-1-oxopentan-2-yl)-4-(1-propylpiperidin-4-yl)benzamide [Example 38]” belongs greater than 4000 nM.

With `COCCN1CCN(c2ccc(C(=O)N[C@@H](CC(C)C)C(=O)N3C[C@@H](N)[C@H]4OCC(=O)[C@H]43)cc2)CC1` [Example 24, N—((S)-1-((3aS,6R,6aR)-6-amino-3-oxodihydro-2H-furo[3,2-b]pyrrol-4(5H,6H,6aH)-yl)-4-methyl-1-oxopentan-2-yl)-4-(4-(2-methoxyethyl)piperazin-1-yl)benzamide], in the data set “LogD determinations”, the logD at 1 h was in the range of 0.01 to 0.76 and the “LogD pH 7.4” value came to 0.01. In addition, the Ki on cathepsin K (setting [2]) worked out at 3.5 nM. The “Human Plasma Stability % rem. @ 1 h” value in data set [1] amounted to 96%. As for `CCN1CCN(c2ccc(C(=O)N[C@@H](CC(C)(C)C)C(=O)N3C[C@H](OC)[C@H]4OCC(=O)[C@H]43)cc2)CC1` [Example 6, 4-(4-ethylpiperazin-1-yl)-N—((S)-1-((3aS,6S,6aS)-6-methoxy-3-oxodihydro-2H-furo[3,2-b]pyrrol-4(5H,6H,6aH)-yl)-4,4dimethyl-1-oxopentan-2-yl)benzamide], in “LogD determinations”, the logD at 1 h was greater than 0.8 and the “LogD pH 7.4” value amounted to 1.46. For the same molecule, the Ki on cathepsin K (setting [2]) amounted to 5.1 nM. Also, the “Human Plasma Stability % rem. @ 1 h” value in data set [1] was found to be 100%.
